In ChEMBL document CHEMBL1201862, “PubChem BioAssay data set” (2004):
Activity calls are given as the source filed them.

Experiments:
[1] = biological target: T1, Mannose-6-phosphate isomerase (Homo sapiens, UniProt P34949); experiment: human PMI inhibitors, high substrate, primary screen, biochemical, fluorescence intensity, high mannose 6-phosphate (AID 1220)
T1 sequence (P34949 whole entry): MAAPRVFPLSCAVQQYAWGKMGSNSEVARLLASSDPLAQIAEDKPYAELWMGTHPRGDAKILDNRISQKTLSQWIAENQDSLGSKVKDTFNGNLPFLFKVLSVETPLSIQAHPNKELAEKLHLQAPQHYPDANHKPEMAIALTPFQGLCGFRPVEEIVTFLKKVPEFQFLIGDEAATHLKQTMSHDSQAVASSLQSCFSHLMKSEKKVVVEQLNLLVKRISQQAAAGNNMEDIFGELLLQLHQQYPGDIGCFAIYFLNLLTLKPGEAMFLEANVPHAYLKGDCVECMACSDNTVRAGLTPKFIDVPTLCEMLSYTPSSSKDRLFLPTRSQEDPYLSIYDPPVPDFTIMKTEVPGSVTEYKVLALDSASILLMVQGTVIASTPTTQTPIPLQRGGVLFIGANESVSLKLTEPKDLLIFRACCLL

[2] = biological target: T2, Voltage-gated N-type calcium channel alpha-1B subunit/Amyloid beta A4 precursor protein-binding family A member 1 (Homo sapiens, UniProt Q00975+Q02410); type: protein assay
T2 sequence (Q00975 whole entry): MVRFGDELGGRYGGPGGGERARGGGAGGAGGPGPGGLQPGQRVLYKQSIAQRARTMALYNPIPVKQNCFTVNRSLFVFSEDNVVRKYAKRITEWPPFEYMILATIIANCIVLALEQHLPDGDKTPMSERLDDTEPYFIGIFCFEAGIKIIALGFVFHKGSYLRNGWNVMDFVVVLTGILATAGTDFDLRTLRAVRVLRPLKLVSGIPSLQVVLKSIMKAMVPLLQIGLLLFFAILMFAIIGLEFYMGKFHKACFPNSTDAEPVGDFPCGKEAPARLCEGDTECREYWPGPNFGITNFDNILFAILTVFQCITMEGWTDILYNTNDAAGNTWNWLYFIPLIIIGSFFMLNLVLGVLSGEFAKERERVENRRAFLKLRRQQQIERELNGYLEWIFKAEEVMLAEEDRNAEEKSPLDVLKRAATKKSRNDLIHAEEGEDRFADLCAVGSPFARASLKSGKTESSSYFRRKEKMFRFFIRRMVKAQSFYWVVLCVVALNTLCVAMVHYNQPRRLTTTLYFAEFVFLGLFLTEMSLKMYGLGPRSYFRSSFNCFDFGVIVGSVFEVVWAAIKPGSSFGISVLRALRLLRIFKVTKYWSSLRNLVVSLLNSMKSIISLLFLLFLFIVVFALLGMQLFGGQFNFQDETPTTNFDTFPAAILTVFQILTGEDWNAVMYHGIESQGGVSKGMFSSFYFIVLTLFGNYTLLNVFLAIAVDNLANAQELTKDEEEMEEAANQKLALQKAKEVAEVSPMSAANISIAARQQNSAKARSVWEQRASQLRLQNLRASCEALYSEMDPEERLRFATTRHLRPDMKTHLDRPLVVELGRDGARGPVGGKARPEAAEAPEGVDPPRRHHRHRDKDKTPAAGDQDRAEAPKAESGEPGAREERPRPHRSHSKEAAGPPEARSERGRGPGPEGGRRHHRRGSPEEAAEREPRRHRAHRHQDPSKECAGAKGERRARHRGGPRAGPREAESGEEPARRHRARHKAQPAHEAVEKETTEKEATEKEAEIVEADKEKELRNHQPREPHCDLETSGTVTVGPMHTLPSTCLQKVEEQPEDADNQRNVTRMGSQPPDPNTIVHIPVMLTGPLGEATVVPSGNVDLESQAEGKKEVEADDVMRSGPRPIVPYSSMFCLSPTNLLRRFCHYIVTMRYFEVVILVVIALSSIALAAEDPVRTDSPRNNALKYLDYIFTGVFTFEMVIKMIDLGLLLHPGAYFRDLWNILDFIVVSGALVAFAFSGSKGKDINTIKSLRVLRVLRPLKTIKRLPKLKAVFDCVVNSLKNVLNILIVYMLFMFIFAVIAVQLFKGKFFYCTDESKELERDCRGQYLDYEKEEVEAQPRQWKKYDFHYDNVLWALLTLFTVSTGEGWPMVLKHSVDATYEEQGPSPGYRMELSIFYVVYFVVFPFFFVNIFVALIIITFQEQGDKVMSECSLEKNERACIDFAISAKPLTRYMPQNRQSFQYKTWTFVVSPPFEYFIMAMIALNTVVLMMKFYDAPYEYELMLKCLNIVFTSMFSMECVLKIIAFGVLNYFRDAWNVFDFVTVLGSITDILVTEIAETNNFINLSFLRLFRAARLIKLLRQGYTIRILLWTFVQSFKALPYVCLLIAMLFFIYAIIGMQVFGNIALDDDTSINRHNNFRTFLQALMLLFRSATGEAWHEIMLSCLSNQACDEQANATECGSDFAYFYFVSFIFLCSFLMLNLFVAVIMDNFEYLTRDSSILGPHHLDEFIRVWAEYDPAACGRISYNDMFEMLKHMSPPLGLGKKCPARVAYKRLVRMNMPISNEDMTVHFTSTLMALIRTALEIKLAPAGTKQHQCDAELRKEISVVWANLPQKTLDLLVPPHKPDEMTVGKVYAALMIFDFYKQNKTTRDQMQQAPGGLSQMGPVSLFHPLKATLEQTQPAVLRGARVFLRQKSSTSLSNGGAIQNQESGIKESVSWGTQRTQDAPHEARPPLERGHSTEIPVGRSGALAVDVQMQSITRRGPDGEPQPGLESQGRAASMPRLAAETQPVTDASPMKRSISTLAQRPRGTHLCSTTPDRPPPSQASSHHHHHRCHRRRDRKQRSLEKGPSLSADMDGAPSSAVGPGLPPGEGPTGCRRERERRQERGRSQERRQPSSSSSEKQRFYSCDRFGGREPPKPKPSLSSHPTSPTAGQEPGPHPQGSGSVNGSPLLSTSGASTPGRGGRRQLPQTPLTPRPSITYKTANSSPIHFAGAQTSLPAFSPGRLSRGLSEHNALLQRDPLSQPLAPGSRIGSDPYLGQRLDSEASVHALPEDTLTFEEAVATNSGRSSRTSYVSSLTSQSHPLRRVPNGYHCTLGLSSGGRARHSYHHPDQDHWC
T2 sequence (Q02410 whole entry): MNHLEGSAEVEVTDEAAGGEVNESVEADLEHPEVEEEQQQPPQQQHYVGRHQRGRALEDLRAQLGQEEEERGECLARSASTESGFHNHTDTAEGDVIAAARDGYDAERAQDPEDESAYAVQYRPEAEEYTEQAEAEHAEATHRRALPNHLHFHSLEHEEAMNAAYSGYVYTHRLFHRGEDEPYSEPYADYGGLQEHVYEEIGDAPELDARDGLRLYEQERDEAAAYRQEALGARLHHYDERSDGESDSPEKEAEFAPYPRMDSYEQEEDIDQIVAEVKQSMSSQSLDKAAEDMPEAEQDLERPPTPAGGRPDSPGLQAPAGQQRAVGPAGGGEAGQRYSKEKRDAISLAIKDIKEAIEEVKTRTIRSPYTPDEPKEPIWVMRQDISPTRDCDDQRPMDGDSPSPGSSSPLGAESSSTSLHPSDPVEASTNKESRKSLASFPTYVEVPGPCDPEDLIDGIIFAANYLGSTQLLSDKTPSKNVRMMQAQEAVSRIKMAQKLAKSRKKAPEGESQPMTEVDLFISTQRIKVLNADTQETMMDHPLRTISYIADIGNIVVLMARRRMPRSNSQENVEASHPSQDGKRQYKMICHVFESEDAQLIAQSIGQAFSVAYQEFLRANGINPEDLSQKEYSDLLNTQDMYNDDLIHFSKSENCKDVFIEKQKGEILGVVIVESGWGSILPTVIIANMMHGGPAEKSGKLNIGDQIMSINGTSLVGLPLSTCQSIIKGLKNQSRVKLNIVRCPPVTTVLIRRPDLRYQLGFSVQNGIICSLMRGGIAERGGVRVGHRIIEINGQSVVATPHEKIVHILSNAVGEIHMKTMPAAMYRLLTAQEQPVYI

[3] = biological target: T3, Insulin-degrading enzyme (Homo sapiens, UniProt P14735); experiment: Dose Response: Fluorescence polarization-based cell-based high throughput dose response assay for inhibitors of insulin-degrading enzyme (IDE). [Related pubchem assays: 434962 (Primary screen (IDE inhibitors in singlicate)), 449730 (Counterscreen (Cytotoxicity in triplicate)), 435028 (Confirmation (IDE inhibitors in triplicate)), 434984 (Summary …; type: functional
T3 sequence (P14735 whole entry): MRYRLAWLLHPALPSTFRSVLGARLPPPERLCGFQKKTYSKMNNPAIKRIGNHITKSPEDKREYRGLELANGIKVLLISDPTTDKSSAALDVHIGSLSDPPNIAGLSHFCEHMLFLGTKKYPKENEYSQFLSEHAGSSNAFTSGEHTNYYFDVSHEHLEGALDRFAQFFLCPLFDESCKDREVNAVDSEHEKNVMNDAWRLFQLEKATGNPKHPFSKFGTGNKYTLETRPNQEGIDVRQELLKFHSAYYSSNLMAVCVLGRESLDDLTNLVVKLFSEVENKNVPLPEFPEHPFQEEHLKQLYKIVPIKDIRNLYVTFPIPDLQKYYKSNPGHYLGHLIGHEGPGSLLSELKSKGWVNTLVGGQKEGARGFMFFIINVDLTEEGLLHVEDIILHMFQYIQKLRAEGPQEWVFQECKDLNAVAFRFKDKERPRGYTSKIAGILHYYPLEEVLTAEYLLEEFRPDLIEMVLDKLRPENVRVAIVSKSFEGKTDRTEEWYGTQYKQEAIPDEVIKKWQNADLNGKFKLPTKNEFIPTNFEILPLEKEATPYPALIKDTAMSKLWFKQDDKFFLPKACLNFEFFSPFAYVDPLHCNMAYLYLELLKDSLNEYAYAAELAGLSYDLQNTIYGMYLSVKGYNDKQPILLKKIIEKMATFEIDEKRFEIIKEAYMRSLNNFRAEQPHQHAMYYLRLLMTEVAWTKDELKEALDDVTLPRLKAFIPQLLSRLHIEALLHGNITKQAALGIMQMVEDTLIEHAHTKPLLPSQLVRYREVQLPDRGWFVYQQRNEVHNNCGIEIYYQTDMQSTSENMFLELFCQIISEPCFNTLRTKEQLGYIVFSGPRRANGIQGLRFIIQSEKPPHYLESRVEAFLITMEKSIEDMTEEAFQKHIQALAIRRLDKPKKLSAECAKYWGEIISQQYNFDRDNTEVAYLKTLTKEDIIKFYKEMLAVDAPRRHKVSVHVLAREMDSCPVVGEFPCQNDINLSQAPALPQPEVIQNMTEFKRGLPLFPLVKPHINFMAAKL

[4] = biological target: T2, Voltage-gated N-type calcium channel alpha-1B subunit/Amyloid beta A4 precursor protein-binding family A member 1; type: protein assay; remark: listed apart in the source
[5] = inhibitors of intracellular T. cruzi replication, confirmation, NIH3T3 host cells, beta-gal luminescence (AID 2044); type: functional, cell-based;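 also: intracellular parasites grown in NIH/3T3 mouse fibroblasts as host cells; luminescent beta-galactosidase reporter signal from transgenic T. cruzi replicating inside host cells; inhibitors lower the luminescence signal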
[6] = Shn3 3'UTR reporter inhibitors, dose response, cell-based, Clone20 osteoblasts, firefly luciferase, cherry-picked (AID 624132); type: functional;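 also: firefly luciferase luminescence from reporter carrying the Shn3 3'UTR in osteoblasts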
[7] = cytotoxicity toward NIH3T3 fibroblasts, dose response, counter-screen, cell-based, ATP luminescence, mouse fibroblasts (AID 2010); type: functional;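 also: cells exposed to compound for about 90 hours before reading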
[8] = control 3'UTR Renilla luciferase suppression, dose response, counter-screen for Shn3 inhibitor project, cell-based, Clone20-Shn3RL, cherry-picked (AID 624133); type: functional
[9] = cells
[10] = HepG2 cell cytotoxicity, dose response, cytotoxicity control for Shn3 inhibitor project, CellTiter-Glo, cherry-picked (AID 624134); type: functional, cell-based
[11] = Luminescence Cell-Based Dose Response to Identify Activators of 5'UTR Stem-Loop Driven Prion Protein mRNA Translation in H4-C Neuroglioblastoma Cells. [Related pubchem assays: 1829 (Project Summary), 1814 (Primary HTS)]; type: functional
[12] = Luminescence Cell-Based Dose Response HTS to Identify Activators of Luciferase Translation or Activity in H4 […] Cells. [Related pubchem assays: 1829 (Project Summary), 1814 (Primary HTS)]; type: functional
[13] = Luminescence Cell-Based Dose Confirmation to Identify Activators of 5'UTR Stem-Loop Driven Alpha-Synuclein mRNA Translation in H4 Neuroglioblastoma Cells. [Related pubchem assays: 1829 (Project Summary), 1814 (Primary HTS)]; type: functional
[14] = Luminescence Cell-Based Dose Response to Identify Activators of Luciferase Translation or Activity in H4-C Neuroglioblastoma Cells. [Related pubchem assays: 1829 (Project Summary), 1814 (Primary HTS)]; type: functional
[15] = test system: H4; experiment: Luminescence Cell-Based Dose Response HTS to Identify Activators of 5'UTR Stem-Loop Driven Prion Protein mRNA Translation in H4 Neuroglioblastoma Cells. [Related pubchem assays: 1829 (Project Summary), 1814 (Primary HTS)]; type: functional; conditions: Homo sapiens
[16] = biological target: Paired box protein Pax-8 (Homo sapiens, UniProt Q06710); experiment: inhibitors of PAX8-driven TPO luciferase reporter, dose response, RMG-I cells, cherry-pick (AID 687027); type: functional, cell-based;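 also: luciferase reporter driven by Pax8 target thyroperoxidase promoter measured by SteadyGlo luminescence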
Paired box protein Pax-8, sequence (Q06710 whole entry): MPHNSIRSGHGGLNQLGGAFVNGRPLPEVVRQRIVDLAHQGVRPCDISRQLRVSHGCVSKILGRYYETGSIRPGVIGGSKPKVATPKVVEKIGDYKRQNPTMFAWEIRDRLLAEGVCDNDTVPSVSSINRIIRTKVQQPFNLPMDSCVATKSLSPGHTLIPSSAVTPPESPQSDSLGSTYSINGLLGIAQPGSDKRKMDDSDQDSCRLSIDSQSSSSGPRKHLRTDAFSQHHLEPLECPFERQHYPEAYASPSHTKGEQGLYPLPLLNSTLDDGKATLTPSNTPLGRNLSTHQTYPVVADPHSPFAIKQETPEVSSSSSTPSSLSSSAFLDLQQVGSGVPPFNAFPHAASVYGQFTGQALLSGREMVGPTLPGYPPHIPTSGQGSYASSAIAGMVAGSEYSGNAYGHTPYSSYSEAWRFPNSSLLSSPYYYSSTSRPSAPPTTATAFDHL

[17] = biological target: Aryl hydrocarbon receptor (Homo sapiens, UniProt P35869); experiment: Luminescence-based cell-based high throughput dose response assay for activators of the Aryl Hydrocarbon Receptor (AHR). [Related pubchem assays: 2796 (Primary screen (AHR activators in singlicate)), 2845 (Confirmation screen (AHR activators in triplicate)), 434939 (Counterscreen (PXR activators in triplicate)), 2804 (Summary (AHR activators))]; type: ADME
Aryl hydrocarbon receptor, sequence (P35869 whole entry): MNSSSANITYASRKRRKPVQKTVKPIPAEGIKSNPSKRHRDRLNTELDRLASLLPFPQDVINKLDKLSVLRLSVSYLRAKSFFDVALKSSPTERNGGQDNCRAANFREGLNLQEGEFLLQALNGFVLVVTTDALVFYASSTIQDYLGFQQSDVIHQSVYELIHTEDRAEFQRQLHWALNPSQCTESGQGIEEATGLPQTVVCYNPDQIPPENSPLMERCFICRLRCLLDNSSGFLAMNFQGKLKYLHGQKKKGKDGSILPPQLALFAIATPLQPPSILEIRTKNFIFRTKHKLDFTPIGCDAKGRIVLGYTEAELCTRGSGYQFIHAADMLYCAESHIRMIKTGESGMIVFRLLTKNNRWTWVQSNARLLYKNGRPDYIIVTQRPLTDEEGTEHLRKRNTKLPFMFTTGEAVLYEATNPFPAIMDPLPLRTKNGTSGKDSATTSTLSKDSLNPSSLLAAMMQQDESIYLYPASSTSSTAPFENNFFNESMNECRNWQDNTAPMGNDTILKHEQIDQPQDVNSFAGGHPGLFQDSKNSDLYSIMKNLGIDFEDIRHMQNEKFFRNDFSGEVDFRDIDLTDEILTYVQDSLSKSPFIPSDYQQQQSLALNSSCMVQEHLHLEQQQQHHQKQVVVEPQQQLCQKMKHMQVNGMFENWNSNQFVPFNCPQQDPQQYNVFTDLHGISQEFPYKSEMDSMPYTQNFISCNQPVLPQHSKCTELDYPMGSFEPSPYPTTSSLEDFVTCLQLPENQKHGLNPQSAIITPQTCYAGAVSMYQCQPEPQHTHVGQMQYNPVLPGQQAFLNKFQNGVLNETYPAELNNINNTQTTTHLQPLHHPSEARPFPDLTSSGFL

[18] = test system: INS1; experiment: beta cell apoptosis inhibitors, cytokine rescue, dose response, luminescence, retest (AID 449756); type: functional, cell-based; conditions: Rattus norvegicus;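 also: cell death triggered by IL-1 beta plus TNF-alpha plus IFN-gamma mixture; protective hits raise ATP signal compared with cytokine alone wells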
[19] = inhibitors of SNCA 5'UTR-driven reporter translation, confirmation, H4 neuroglioma cells, luminescence (AID 1988); type: functional, cell-based
[20] = test system: BJ; experiment: cytotoxicity toward BJ-TERT fibroblasts, dose response, cell-based, RAS-independent, luminescence (AID 1933); type: functional; conditions: Homo sapiens
[21] = microbe, parasite or virus in culture; type: functional; conditions: Mycobacterium tuberculosis
[22] = test system: BJ; experiment: cells; type: functional, cell-based; conditions: Homo sapiens
[23] = biological target: T4, Ubiquitin-conjugating enzyme E2 N (Homo sapiens, UniProt P61088); type: functional;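 also: Dose-response confirmation in a TR-FRET assay detecting UBC13-driven polyubiquitin chain formation, inhibition measured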
T4 sequence (P61088 whole entry): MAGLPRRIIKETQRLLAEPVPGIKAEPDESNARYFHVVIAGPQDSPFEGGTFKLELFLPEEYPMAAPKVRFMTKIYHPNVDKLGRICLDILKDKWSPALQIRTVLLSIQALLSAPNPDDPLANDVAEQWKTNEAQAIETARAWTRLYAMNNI

[24] = biological target: Heat shock protein HSP 90-alpha (Homo sapiens, UniProt P07900); experiment: Luminescence-based dose response biochemical high throughput screening assay for inhibitors of the Heat Shock Protein 90 (HSP90). [Related pubchem assays: 1831 (Summary AID.), 1846 (Confirmation screen.), 1789 (Primary screen.)]
[25] = cytotoxicity toward DRD oncogenic fibroblasts, dose response, cell-based, non-viral oncogenic, luminescence (AID 1934); type: functional; conditions: Homo sapiens
[26] = test system: BJ; experiment: cytotoxicity toward BJ-TERT-LT-ST fibroblasts, dose response, cell-based, RAS-independent, luminescence (AID 1935); type: functional; conditions: Homo sapiens;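 also: BJ fibroblasts immortalized with TERT plus LT and ST oncogenes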
[27] = Luminescence Cell-Based Dose Response HTS to Identify Inhibitors of 5'UTR Stem-Loop Driven Prion Protein mRNA Translation in H4 Neuroglioblastoma Cells. [Related pubchem assays: 1827 (Project Summary), 1813 (Primary HTS)]; type: functional
[28] = inhibitors of firefly luciferase expression or activity, dose response, H4 neuroglioma cells, luminescence (AID 1990); type: functional, cell-based
[29] = Jurkat T cell cytotoxicity, dose response, cytotoxicity control for P. falciparum gametocyte viability project, luminescence (AID 1117277); type: functional, cell-based;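 also: potency reflects loss of cellular ATP meaning fewer viable cells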
[30] = P. falciparum late gametocyte killing, dose response, luminescence (AID 1117278); type: functional, cell-based;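 also: gametocytes exposed to compound for 24 hours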
[31] = biological target: Photoreceptor-specific nuclear receptor (Homo sapiens, UniProt Q9Y5X4); experiment: NR2E3 inverse agonists, dose response, biochemical, TR-FRET (AID 463256); type: functional
Photoreceptor-specific nuclear receptor, sequence (Q9Y5X4 whole entry): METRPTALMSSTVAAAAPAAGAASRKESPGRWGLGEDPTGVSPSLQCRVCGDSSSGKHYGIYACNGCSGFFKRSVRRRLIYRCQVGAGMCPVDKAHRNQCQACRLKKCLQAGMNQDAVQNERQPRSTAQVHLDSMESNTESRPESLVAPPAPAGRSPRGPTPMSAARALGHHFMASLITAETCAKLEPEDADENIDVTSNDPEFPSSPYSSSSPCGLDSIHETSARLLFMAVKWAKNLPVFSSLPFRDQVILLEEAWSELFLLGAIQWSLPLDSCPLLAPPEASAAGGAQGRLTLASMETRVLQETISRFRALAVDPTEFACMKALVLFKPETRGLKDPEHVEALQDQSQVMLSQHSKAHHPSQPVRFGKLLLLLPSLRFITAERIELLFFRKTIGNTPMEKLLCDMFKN

[32] = biological target: Peroxisome proliferator-activated receptor gamma/Nuclear receptor corepressor 2 (Homo sapiens, UniProt P37231+Q9Y618); experiment: Counterscreen for NR2E3 inverse agonists: TR-FRET-based biochemical high throughput dose response assay to identify inverse agonists of the interaction between peroxisome proliferator-activated receptor gamma (PPARg) and nuclear receptor co-repressor 2 (NCOR2).; type: functional

For `O=c1[nH]c2ccccc2c(O)c1O`, the IC50 [1] was 9.69 µM (active), the IC50 [2] was 2.71 µM (active) and the IC50 [3] was 3.28 µM (active). For the same molecule, the IC50 [4] was 28.5 µM (active).

In the case of `c1ccc(Nc2nc(NCC3CCCO3)c3ccccc3n2)cc1` (centres undefined), the EC50 [5] is reported as < 0.1 µM (active), the AC50 [6] is reported as 21.7 µM (active) and the EC50 [7] is reported as > 60 µM (not active). The AC50 [8] was 4.84 µM (active), the EC50 [9] was 0.131 µM (active) and the AC50 [10] was 7.09 µM (active).

In the case of `Cc1cc(C(=O)ON=C(N)c2ccc(C(C)(C)C)cc2)no1`, the EC50 [11] is reported as 1.78 µM (active), the EC50 [12] is reported as < 0.1 µM (inconclusive) and the EC50 [13] is reported as 0.737 µM (active). For the same molecule, the EC50 [14] was 0.442 µM (active) and the EC50 [15] was 110 µM (active).

For `CCc1ccc2[nH]c3nc(N/N=C/c4ccc(O)cc4O)nnc3c2c1`, the EC50 [5] was 2.44 µM (active), the EC50 [7] was 17.7 µM (active) and the AC50 [16] was 2.7 µM (active). The EC50 [17] was > 91.7 µM (not active) and the AC50 [18] was 1.58 µM (active).

In the case of `COc1ccc(-c2cc3c(=O)n(CC(=O)NCCCN4CCC(Cc5ccccc5)CC4)ncn3n2)cc1`, the EC50 [19] is reported as 8.06 µM (active), the EC50 [20] is reported as 10.1 µM (active) and the CC50 [21] is reported as 34.2 µM (active). The EC50 [22] was 16.4 µM (active), the IC50 [23] was > 20 µM (inactive) and the IC50 [24] was 6.82 µM (active). The EC50 [25] was 8.08 µM (active), the EC50 [26] was 12.9 µM (inconclusive) and the EC50 [27] was 11.4 µM (active). The EC50 [28] was 9.23 µM (inconclusive).

With `COc1ccc(CC(=O)Nc2cccc(-c3ccc4nnc(C)n4n3)c2)cc1OC` the IC50 [29] was 35.6 µM (inactive) and the IC50 [30] was > 109 µM (inactive).

In the case of `CC(=O)Nc1ccc(NC(=O)CNC(=O)c2sc3ccccc3c2Cl)cc1`, the IC50 [31] is reported as 15.5 µM (not active) and the IC50 [32] is reported as 11.1 µM (not active).
